Earlier results, collected in US8551962B2, “High dosage doramectin formulation” (Zoetis LLC, priority 2009, dated 2013).

Conditions: beef cattle; single dose of 200 μg/Kg of body weight

CO[C@H]1C[C@H](O[C@H]2[C@H](C)O[C@@H](O[C@@H]3/C(C)=C/C[C@@H]4C[C@@H](C[C@]5(C=C[C@H](C)[C@@H](C6CCCCC6)O5)O4)OC(=O)[C@@H]4C=C(C)[C@@H](O)[C@H]5OC/C(=C\C=C\[C@@H]3C)[C@]54O)C[C@@H]2OC)O[C@@H](C)[C@@H]1O [doramectin]
withhold time: 35 days
